Measurements published in publication PMC8330742, “New benzothieno[2,3-c]pyridines as non-steroidal CYP17 inhibitors: design, synthesis, anticancer screening, apoptosis induction, and in silico ADME profile studies” (Journal of Enzyme Inhibition and Medicinal Chemistry, 2021).

Experiments:
CYP17 = settings: Figure 1, known CYP17 inhibitors; cited from earlier work
SK-MEL-28 = test: NCI-60 SRB screen; format: cell-based; settings: SK-MEL-28; single dose 10^−5 M
MALME-3M = test: NCI-60 SRB screen; format: cell-based, human; settings: single dose 10^−5 M
CAKI-1 = test: NCI-60 SRB screen; format: cell-based, human; settings: CAKI-1; single dose 10^−5 M
SN12C = test: NCI-60 SRB screen; format: cell-based, human; settings: SN 12 C; single dose 10^−5 M
U251 = test: NCI-60 SRB screen; format: cell-based, human; settings: U251; single dose 10^−5 M
UO-31 = test: NCI-60 SRB screen; format: cell-based, human; settings: UO-31; single dose 10^−5 M
RPMI-8226 = test: NCI-60 SRB screen; format: cell-based; settings: RPMI-8226; single dose 10^−5 M
HCT-116 = test: NCI-60 SRB screen; format: cell-based, human; settings: HCT-116; single dose 10^−5 M
HOP-92 = test: NCI-60 SRB screen; format: cell-based, human; settings: HOP-92; single dose 10^−5 M
SF-295 = test: NCI-60 SRB screen; format: cell-based, human; settings: SF-295; single dose 10^−5 M
IGROV1 = test: NCI-60 SRB screen; format: cell-based, human; settings: IGROV1; single dose 10^−5 M
786-0 = test: NCI-60 SRB screen; format: cell-based; settings: 786-0; single dose 10^−5 M
SW-620 = test: NCI-60 SRB screen; format: cell-based; settings: SW-620; single dose 10^−5 M
TK-10 = test: NCI-60 SRB screen; format: cell-based, human; settings: TK-10; single dose 10^−5 M
HCC-2998 = test: NCI-60 SRB screen; format: cell-based, human; settings: HCC-2998; single dose 10^−5 M
SR = test: NCI-60 SRB screen; format: cell-based; settings: single dose 10^−5 M
RXF 393 = test: NCI-60 SRB screen; format: cell-based, human; settings: RXF 393; single dose 10^−5 M
NCI-H322M = test: NCI-60 SRB screen; format: cell-based, human; settings: single dose 10^−5 M
COLO 205 = test: NCI-60 SRB screen; format: cell-based, human; settings: COLO 205; single dose 10^−5 M
OVCAR-8 = test: NCI-60 SRB screen; format: cell-based, human; settings: OVCAR-8; single dose 10^−5 M
NCI/ADR-RES = test: NCI-60 SRB screen; format: cell-based, human; settings: single dose 10^−5 M
HOP-62 = test: NCI-60 SRB screen; format: cell-based, human; settings: HOP-62; single dose 10^−5 M
LOX IMVI = test: NCI-60 SRB screen; format: cell-based, human; settings: single dose 10^−5 M
UACC-62 = test: NCI-60 SRB screen; format: cell-based, human; settings: UACC-62; single dose 10^−5 M
HT-29 = test: NCI-60 SRB screen; format: cell-based; settings: HT-29; single dose 10^−5 M
HCT-15 = test: NCI-60 SRB screen; format: cell-based, human; settings: HCT-15; single dose 10^−5 M
NCI-H522 = test: NCI-60 SRB screen; format: cell-based, human; settings: NCI-H522; single dose 10^−5 M
SK-MEL-2 = test: NCI-60 SRB screen; format: cell-based, human; settings: SK-MEL-2; single dose 10^−5 M
SNB-75 = test: NCI-60 SRB screen; format: cell-based, human; settings: SNB-75; single dose 10^−5 M
UACC-257 = test: NCI-60 SRB screen; format: cell-based, human; settings: UACC-275 (so in the source); single dose 10^−5 M
OVCAR-4 = test: NCI-60 SRB screen; format: cell-based, human; settings: OVCAR-4; single dose 10^−5 M
SK-OV-3 = test: NCI-60 SRB screen; format: cell-based, human; settings: SK-OV-3; single dose 10^−5 M
A498 = test: NCI-60 SRB screen; format: cell-based, human; settings: A498; single dose 10^−5 M
A549/ATCC = test: NCI-60 SRB screen; format: cell-based, human; settings: single dose 10^−5 M
NCI-H23 = test: NCI-60 SRB screen; format: cell-based, human; settings: NCI-H23; single dose 10^−5 M
ACHN = test: NCI-60 SRB screen; format: cell-based; settings: single dose 10^−5 M
MOLT-4 = test: NCI-60 SRB screen; format: cell-based; settings: MOLT-4; single dose 10^−5 M
CCRF-CEM = test: NCI-60 SRB screen; format: cell-based; settings: single dose 10^−5 M
MDA-MB-435 = test: NCI-60 SRB screen; format: cell-based; settings: MDA-MB435; single dose 10^−5 M
SF-268 = test: NCI-60 SRB screen; format: cell-based, human; settings: SF-268; single dose 10^−5 M
NCI-H226 = test: NCI-60 SRB screen; format: cell-based, human; settings: NCI-H226; single dose 10^−5 M
KM12 = test: NCI-60 SRB screen; format: cell-based, human; settings: KM12; single dose 10^−5 M
SK-MEL-5 = test: NCI-60 SRB screen; format: cell-based, human; settings: SK-MEL-5; single dose 10^−5 M
M14 = test: NCI-60 SRB screen; format: cell-based, human; settings: M14; single dose 10^−5 M
OVCAR-3 = test: NCI-60 SRB screen; format: cell-based, human; settings: OVCAR-3; single dose 10^−5 M
K-562 = test: NCI-60 SRB screen; format: cell-based, human; settings: K-562; single dose 10^−5 M
OVCAR-5 = test: NCI-60 SRB screen; format: cell-based, human; settings: OVCAR-5; single dose 10^−5 M
SNB-19 = test: NCI-60 SRB screen; format: cell-based; settings: SNB-19; single dose 10^−5 M
SF-539 = test: NCI-60 SRB screen; format: cell-based, human; settings: SF-539; single dose 10^−5 M
EKVX = test: NCI-60 SRB screen; format: cell-based, human; settings: single dose 10^−5 M
HL-60(TB) = test: NCI-60 SRB screen; format: cell-based, human; settings: HL-60 (TB); single dose 10^−5 M
[1] = system: panel of 60 cancer cell lines; test: NCI-60 SRB screen, mean or range over the panel; format: cell-based, human; settings: mean over the cell lines; single dose 10^−5 M
NCI-H460 = test: NCI-60 SRB screen; format: cell-based, human; settings: NCI-H460; single dose 10^−5 M

## CNC(=O)c1ccc(N2C(=S)N(c3cnc(C#N)c(C(F)(F)F)c3)C(=O)C23CCC3)cc1F [Apalutamide, apalutamide]
CYP17
  IC50: 15 nM

## Cc1ccncc1N1CCN(c2ccnc(Cl)c2)C1=O [CFG920]
CYP17
  IC50: 23 nM

## O=C1C(=Cc2cccc([N+](=O)[O-])c2)Sc2c(F)cccc21 [Compound 2d, 7-Fluoro-2-(3-nitrobenzylidene)[1]benzothiophen-3(2H)-one]
other
  melting point: 200 to 202 °C

## O=C1Cc2c(sc3c(F)cccc23)C(c2cccc([N+](=O)[O-])c2)N1 (stereo not drawn) [Compound 3d]
SK-MEL-28
  Growth inhibition (%): −9.19%
MALME-3M
  Growth inhibition (%): −6.36%
CAKI-1
  Growth inhibition (%): 21.82%
SN12C
  Growth inhibition (%): 4.04%
U251
  Growth inhibition (%): 20.57%
UO-31
  Growth inhibition (%): 34.84%
RPMI-8226
  Growth inhibition (%): 29.04%
HCT-116
  Growth inhibition (%): 23.07%
HOP-92
  Growth inhibition (%): 10.96%
SF-295
  Growth inhibition (%): 2.30%
IGROV1
  Growth inhibition (%): 20.45%
786-0
  Growth inhibition (%): −10.00%
SW-620
  Growth inhibition (%): 2.40%
TK-10
  Growth inhibition (%): −52.28%
HCC-2998
  Growth inhibition (%): −6.11%
SR
  Growth inhibition (%): 23.81%
RXF 393
  Growth inhibition (%): −5.23%
NCI-H322M
  Growth inhibition (%): 2.78%
COLO 205
  Growth inhibition (%): −7.27%
OVCAR-8
  Growth inhibition (%): 2.86%
NCI/ADR-RES
  Growth inhibition (%): 4.50%
HOP-62
  Growth inhibition (%): 14.32%
LOX IMVI
  Growth inhibition (%): 12.77%
UACC-62
  Growth inhibition (%): 14.07%
HT-29
  Growth inhibition (%): 0.03%
HCT-15
  Growth inhibition (%): 21.33%
NCI-H522
  Growth inhibition (%): 17.55%
SK-MEL-2
  Growth inhibition (%): −1.12%
SNB-75
  Growth inhibition (%): 21.53%
UACC-257
  Growth inhibition (%): −7.53%
OVCAR-4
  Growth inhibition (%): −1.20%
SK-OV-3
  Growth inhibition (%): −3.95%
A498
  Growth inhibition (%): 4.88%
A549/ATCC
  Growth inhibition (%): −5.27%
NCI-H23
  Growth inhibition (%): 1.04%
ACHN
  Growth inhibition (%): 6.70%
MOLT-4
  Growth inhibition (%): 2.90%
CCRF-CEM
  Growth inhibition (%): 0.90%
MDA-MB-435
  Growth inhibition (%): −3.38%
SF-268
  Growth inhibition (%): 14.60%
NCI-H226
  Growth inhibition (%): 21.32%
KM12
  Growth inhibition (%): 3.93%
SK-MEL-5
  Growth inhibition (%): 5.55%
M14
  Growth inhibition (%): 1.35%
OVCAR-3
  Growth inhibition (%): 0.09%
K-562
  Growth inhibition (%): 15.78%
OVCAR-5
  Growth inhibition (%): −8.70%
SNB-19
  Growth inhibition (%): 6.23%
SF-539
  Growth inhibition (%): 6.60%
EKVX
  Growth inhibition (%): 7.98%
HL-60(TB)
  Growth inhibition (%): 12.00%
[1]
  Mean growth inhibition (%): 6.24%
NCI-H460
  Growth inhibition (%): 0.53%

## C[C@]12CC[C@H](O)CC1=CC[C@@H]1[C@@H]2CC[C@]2(C)C(n3cnc4ccccc43)=CC[C@@H]12 [Galeterone]
CYP17
  IC50: 300 nM

## Oc1ccc2sc3c(c2c1)CCN(Cc1cccnc1)C3 [VIc]
CYP17
  IC50: 20.9 nM

## N#Cc1ccc2sc3c(c2c1)CCN(Cc1cccnc1)C3 [VId]
CYP17
  IC50: 257 nM

## c1ccc2c(c1)[nH]c1cc(Cc3cnc[nH]3)ccc12 [YM-116]
CYP17
  IC50: 228 nM
